Columns and labels:
anaesthetized dogs = conditions: anaesthesized dogs; cited from earlier work
human LDL = experiment: In vitro oxidation of human LDL (Cu-induced conjugated diene formation at 234 nm); format: biochemical; conditions: in vitro
Experimental: In vitro oxidation of human LDL Human venous blood was collected on EDTA (2.68 mM final concentration). Plasma was isolated by centrifugation. NaBr (37.3 mg/ml) was added and solubulized (final density 1.036 g/ml). Centrifuge tubes were first filled to a level corresponding to 2/3 of their maximal volume, further filled with a NaBr solution of 1.036 g/ml and then centrifuged for 18 hours at 45000 rpm in a 50 Ti rotor (Beckmann). After centrifugation, floating lipoproteins were discarded. The remaining solution was adjusted to a density of 1.055 g/ml. Filling of the centrifuge tubes and centrifugation were repeated as described above. After centrifugation, floating LDL was dialysed against a buffer containing 127 mM NaCl, 8 mM Na2 HPO4.2H2 O, 2.7 mM KCl and 1.47 mM KH2 PO4 at pH 7.4. After dialysis, LDL was filtered though a Millipore filter (0.45 μM) and protein content was determined. A dilution of 25 μg/ml was prepared with a millipored dialysis buffer. Oxidation was determined in a Pharmacia Ultraspec III spectrophotometer. Conjugated diene formation was registered at 234 nm. Two μl of a drug or solvent (DMSO) were added to Eppendorf tubes followed by 1 ml of LDL (25 μg/ml) and these substances were gently mixed and centrifuged for 1 min at 13000 g. The solution was pipetted in a Quartz cuvet that was thermostatised in the spectrophotometer at 37° C. After equilibration, the oxidation reaction was started by the addition of CuSO4 (final concentration 10 μM). Absorbance was measured every 3 minutes during the time course of the experiment. The absorbance at 234 nm was divided into three phases: a lag phase, a propagation phase and a decomposition phase (FIG. 1). The lag phase was defined as the intercept with the baseline of the tangent of the slope of the absorbance curve of the propagation phase. The rate of oxidation was defined as the tangent of the slope. Tmax was defined as the time required to attain the maximum absorbance between the propagation and the decomposition phase. The absorbance at tmax minus the absorbance at to was taken as an indicator of the total amount of dienes formed. To verify the reproducibility of the assay, a reference LDL sample was prepared and kept in darkness under nitrogen at 4° C. This reference sample was included in every oxidation experiment. LDL was isolated from 23 subjects. Plasma cholesterol ranged from 156 to 278 mg/dl (mean 213 mg/dl), triglycerides ranged from 47 to 328 mg/dl (mean 191 mg/dl) and phospholipids ranged from 178 to 327 mg/dl (mean 231 mg/dl).

[1] = system: rats (age-associated vascular pathology); experiment: In-vivo anti-atheromatic effect: 24-month oral study in rats, histological score of vascular degeneration/aging
Experimental: In order to verify whether nebivolol had any effects on age-associated vascular pathology, a number of rats were administered nebivolol orally at dosages of 0 (carrier-only), 2.5, 10 and 40 mg/kg during 24 months. As a carrier there was used 2-hydroxypropyl-β-cyclodextrin which improves the bioavailability of nebivolol. At each dose a male and a female group of 50 were entered in the 2 year study. […] The test animals were autopsied and observed for histological non-neoplastic changes.
vasculopathy of the abdominal mesothelia, pancreas, and testis,
focal and diffuse hyperplasia of the parathyroid gland, and
the renal histology, in particular the number of basophilic tubuli, evidence for chronic renal disease and for mineralization.
Histopathological observations received a score from 0 to 3 as follows:
0: no histological change
1: slight histological change
2: moderate histological change
3: severe histological change.
For each observation a mean score was calculated. The observed ratings were analysed using the Mann-Whitney U test (two tailed probability) to detect statistically significant differences between the control groups and the treated groups. Significance computed by Mann-Whitney U test two-tailed: * p<0.05 ** p<0.01 p<0.001.

[2] = system: spontaneous hypertensive rats; conditions: acute; cited from earlier work
[3] = females, 2.5 mg/kg oral, 24 months
[4] = females, 10 mg/kg oral, 24 months
[5] = females, 40 mg/kg oral, 24 months
[6] = males, 2.5 mg/kg oral, 24 months
[7] = males, 10 mg/kg oral, 24 months
[8] = males, 40 mg/kg oral, 24 months

O[C@H](CNC[C@@H](O)[C@H]1CCc2cc(F)ccc2O1)[C@@H]1CCc2cc(F)ccc2O1 (relative stereo) [nebivolol, (RSSS) and (SRRR) α,α'-iminobis(methylene)bis[6-fluoro-2-chroman-methanol]]
stroke volume (anaesthetized dogs): augments stroke volume | total peripheral vascular resistance (anaesthetized dogs): decreases total peripheral vascular resistance | antioxidative effect on human LDL (human LDL): no antioxidative effect | normal aging of the vascular system ([1]; chronic treatment, versus control animals): the normal aging of the vascular system as seen in the control animals is suppressed | Kidney: basophilic tubuli, mean score (0-3) [1, 3]: 0.18 | Kidney: chronic disease, mean score (0-3) [1, 3]: 0.88 | Kidney: mineralization (parenchum/pelvis), mean score (0-3) [1, 3]: 0.84 | Pancreas: vasculopathy, mean score (0-3) [1, 3]: 0.04 | Kidney: basophilic tubuli, mean score (0-3) [1, 4]: 0.18 | Kidney: chronic disease, mean score (0-3) [1, 4]: 0.92 | Kidney: mineralization (parenchum/pelvis), mean score (0-3) [1, 4]: 0.64 | Pancreas: vasculopathy, mean score (0-3) [1, 4]: 0.02 | Kidney: basophilic tubuli, mean score (0-3) [1, 5]: 0.42 | Kidney: chronic disease, mean score (0-3) [1, 5]: 0.78 | Kidney: mineralization (parenchum/pelvis), mean score (0-3) [1, 5]: 0.14 | Pancreas: vasculopathy, mean score (0-3) [1, 5]: 0.00 | Kidney: basophilic tubuli, mean score (0-3) [1, 6]: 0.18 | Kidney: chronic disease, mean score (0-3) [1, 6]: 1.32 | Pancreas: vasculopathy, mean score (0-3) [1, 6]: 0.04 | Parathyroid gland: diffuse hyperplasia, mean score (0-3) [1, 6]: 0.08 | Parathyroid gland: focal hyperplasia, mean score (0-3) [1, 6]: 0.04 | Testis: vasculopathy, mean score (0-3) [1, 6]: 0.20 | Kidney: basophilic tubuli, mean score (0-3) [1, 7]: 0.18 | Kidney: chronic disease, mean score (0-3) [1, 7]: 1.24 | Pancreas: vasculopathy, mean score (0-3) [1, 7]: 0.02 | Parathyroid gland: diffuse hyperplasia, mean score (0-3) [1, 7]: 0.15 | Parathyroid gland: focal hyperplasia, mean score (0-3) [1, 7]: 0.02 | Testis: vasculopathy, mean score (0-3) [1, 7]: 0.08 | Abdominal mesothelia: vasculopathy, mean score (0-3) [1, 8]: 0.00 | Kidney: basophilic tubuli, mean score (0-3) [1, 8]: 0.60 | Kidney: chronic disease, mean score (0-3) [1, 8]: 0.66 | Pancreas: vasculopathy, mean score (0-3) [1, 8]: 0.00 | Parathyroid gland: diffuse hyperplasia, mean score (0-3) [1, 8]: 0.02 | Parathyroid gland: focal hyperplasia, mean score (0-3) [1, 8]: 0.00 | Testis: vasculopathy, mean score (0-3) [1, 8]: 0.02 | blood pressure [2]: acutely lowers blood pressure

— patent US5874461A, “Use of Nebivolol as an anti-atherogenic” (priority 1995, dated 1999)
